“Also recorded” adds a separate entry of the source. Like-named read-outs stand apart in the source and are kept apart here.
What was measured:
normotensive rat = assay: Hypotensive activity in the anesthetized normotensive rat; assay type: in vivo; details: for effect on blood pressure: 15 minutes after i.v. administration
Method: The study was carried out in the normotensive rat anesthetized with pentothal (40 mg.kg^-1 i.p.). The blood pressure was measured with a catheter placed in the carotid artery and linked to a pressure cell (Statham p 23 DB) and to a recorder according to the method described by Waeldele and Stoclet (J. Pharmacol. Paris 1973, 66, 357-366). The derivatives were administered in increasing doses every 15 minutes by intravenous injection (i.v.).
Each point is the average of the values obtained in n aminals ±standard error.
In FIG. 1 the abscissae show the quantities administered of the compound to be tested, and the ordinates show the average blood pressure ΔP mm Hg.

α2 adrenergic receptors = target: T1, α2 adrenergic receptors (Rattus norvegicus, UniProt P22909); assay: Binding to α2 adrenergic receptors (3H-yohimbin), rat cerebral cortex homogenate; details: for Ki: SPECIFIC BINDING, Kl, α 2, 3H-yohimbin, average of three assays
T1 construct: from tissue; host or cells: rat cerebral cortex homogenate
T1 sequence (P22909 1-465): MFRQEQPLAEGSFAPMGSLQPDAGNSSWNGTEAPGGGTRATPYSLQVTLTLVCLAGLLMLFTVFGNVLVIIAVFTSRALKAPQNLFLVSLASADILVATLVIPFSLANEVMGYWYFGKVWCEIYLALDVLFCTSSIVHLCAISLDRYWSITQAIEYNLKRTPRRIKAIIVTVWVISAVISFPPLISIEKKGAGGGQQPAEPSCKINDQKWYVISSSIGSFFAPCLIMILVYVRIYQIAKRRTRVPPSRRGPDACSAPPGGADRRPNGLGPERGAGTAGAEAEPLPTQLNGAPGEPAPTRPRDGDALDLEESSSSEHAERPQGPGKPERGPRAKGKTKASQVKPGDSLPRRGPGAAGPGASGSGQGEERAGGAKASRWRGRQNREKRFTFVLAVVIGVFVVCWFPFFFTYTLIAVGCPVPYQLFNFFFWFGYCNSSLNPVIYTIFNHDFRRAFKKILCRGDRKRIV
Method: (§1) The tests were carried out on rat cerebral cortex homogenate, according to the method described by P. Greengross and R. Bremmerclaus, Eur. J. Pharmacol. (1979) 55 323-326.
(§2) The results represent the average of the three assays. The Ki values were calculated according to Cheng and Prussoff (Biochem. Parmacol. 1973 22 3099-3108).

α1 adrenergic receptors = assay: Binding to α1 adrenergic receptors (3H-prazosin), rat cerebral cortex homogenate; details: for Ki: read-out: SPECIFIC BINDING, Kl, α 1, 3H-prazosin, average of three assays; for affinity for the α1 receptor with respect to the α2 receptor: in words, comparison of α1 and α2 binding
Method: as §1, §2

[1] = cat; cited from earlier work
[2] = dog; cited from earlier work
hypertensive patients = details: cited from earlier work
[3] = test system: hypertensive effects of adrenalin; details: dog; cited from earlier work
[4] = test system: mesenteric territory, electrical stimulation of the sympathetic nerves; assay: Inhibition of sympathetic excitation in vivo: vasoconstriction of perfused mesenteric territory by electrical stimulation of sympathetic nerves; details: i.v. 0.5 mg.kg^-1; 7 Hz; rat
Method: (§3) This study was made for the most hypotensive derivative, STB 6. The vascular reactivity of the mesenteric territory perfused in situ in the rat was measured (according to Jackson and Campbell, Eur. J. Pharmacol., 1980, 66, 217-224). After anesthetizing of the rat with pentothal (40 mg.kg^-1 i.p.) the mesenteric territory was perfused at constant flow from a catheter diverting the blood stream of the abdominal aorta. The vasoconstrictor activity resulting from periarterial electrical excitation of the sympathetic nerves (7 Hz) and […] was measured. The activities of the Berbine derivatives administered intravenously were determined for the two types of pressure response. The results obtained are shown in FIGS. 4a and 4b in which the average blood pressure ΔP mm Hg is plotted on the ordinates and time plotted on the abscissae, the injection of the product to be tested or of the placebo (constituted by the same volume of physiological serum) being at time 0.
(§4) FIG. 4a relates to the vasoconstriction caused by electrical stimulation and FIG. 4b to that caused by noradrenalin.

[5] = target: T2, α-adrenergic receptor / phenylephrine contraction of isolated rat aorta (Rattus norvegicus, UniProt P23944); assay: Antagonism of phenylephrine on the isolated rat aorta (α-blocking activity, Schild analysis); details: for type of antagonism against phenylephrine / affinity for the adrenergic receptor: isolated rat aorta; for r (correlation coefficient of the straight line): Schild's straight line; for r (correlation coefficient of the straight line) / n (slope of Schild's straight line) / Kb: against phenylephrine; for Kb: Schild's relation, read-out: pA2 (converted); for affinity for the adrenergic receptor: in words
T2 construct: phenylephrine on the isolated rat aorta; from tissue; host or cells: isolated rat aorta
T2 sequence (P23944 1-561): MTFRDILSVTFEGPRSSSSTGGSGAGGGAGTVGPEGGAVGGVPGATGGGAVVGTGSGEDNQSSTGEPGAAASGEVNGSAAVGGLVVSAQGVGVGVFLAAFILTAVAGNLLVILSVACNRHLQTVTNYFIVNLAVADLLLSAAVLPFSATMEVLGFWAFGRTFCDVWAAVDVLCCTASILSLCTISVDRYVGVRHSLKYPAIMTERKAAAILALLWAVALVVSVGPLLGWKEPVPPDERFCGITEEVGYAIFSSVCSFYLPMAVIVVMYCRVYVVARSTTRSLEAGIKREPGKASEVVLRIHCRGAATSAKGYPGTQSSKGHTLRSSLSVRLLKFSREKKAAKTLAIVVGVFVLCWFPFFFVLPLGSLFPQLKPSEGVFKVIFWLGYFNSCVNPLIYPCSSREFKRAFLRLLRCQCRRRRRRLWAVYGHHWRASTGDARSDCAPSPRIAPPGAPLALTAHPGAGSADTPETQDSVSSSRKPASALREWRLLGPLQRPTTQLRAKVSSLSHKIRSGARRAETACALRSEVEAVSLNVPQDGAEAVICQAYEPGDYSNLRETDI
From the text: (2) Study of α-blocking activity: study of the antagonism between the derivatives of Berbine and phenylephrine on the isolated rat aorta
The quantitative evaluation of the antagonism between the derivatives to be tested and phenylephrine was made by analysis to effect-concentration relationships in the presence and absence of antagonist and the PA2 values calculated with Schild's relation (Arunlasksha na O. and Schild H. P., Br. J. Pharmacol., 1959, 14, 48-58). […] In FIG. 2 the E effect (% of maximum contraction) in the absence and presence of STB 6 (-) is given in the ordinate, and the abscissa gives the log of the phenylephrine concentration. The different curves relate to the following concentrations:
FIG. 2b is the Schild representation (x being the ratio of phenylephrine concentrations which gives a 50% response in the presence and in the absence of STB 6 (-)). On the ordinate are Log (x-1) and on the abscissa Log [(-) STB 6].
The parameters of Schild's relation were also measured in the presence of STB 52 (-) in the same experimental conditions as for STB 6 (-).

[6] = Toxicity in the mouse (LD50); details: in vivo, male mice
Method: The LD50 was determined in the mouse. The derivatives to be tested were administered in aqueous solution containing 7% dimethylformamide, by esophageal forced feeding of 0.4 ml per 20 g of body weight, to male mice weighing 20 to 25 g.

[7] = test system: mesenteric territory, noradrenalin; assay: Vasoconstriction of perfused mesenteric territory caused by noradrenalin; assay type: in vivo; details: i.v. 0.5 mg.kg^-1; noradrenalin 200 ng; rat
Method: as §3, §4

Which “effect on blood pressure” value (normotensive rat) does the source give for `Oc1ccc2c(c1)CCN1Cc3ccccc3CC21` (single isomer, unassigned; (-)) [(-) STB 4, 3-hydroxy-5,6,13,13a-tetrahydro-8H-dibenzo-[a,g]-quinolizine] here?
Its value is “significant drop in blood pressure”.

And the “dose at which active on blood pressure” value (normotensive rat; i.v.)?
Its value is 1 mg/kg.

And the Ki (α2 adrenergic receptors)?
Its Ki is 307 ± 118 nM.

What about the Ki (α1 adrenergic receptors; rat cerebral cortex homogenate) of the same compound?
The Ki was 462 ± 10 nM.

Which sympatholytic activity [1] does the source give for `c1ccc2c(c1)CC1c3ccccc3CCN1C2` (single isomer, unassigned) [Berbine (-), 5,6,13,13a-tetrahydro-8H-dibenzo[a,g]quinolizine] here?
The sympatholytic activity was “strong sympatholytic activity”.

And the sympatholytic activity [2]?
Its sympatholytic activity is “strong sympatholytic activity”.

And the Ki (α2 adrenergic receptors)?
The Ki was 140 ± 44 nM.

And the “affinity for the α1 receptor with respect to the α2 receptor” value (α1 adrenergic receptors)?
The value was “comparable affinities for the α1 and α2 receptors”.

What about the Ki (α1 adrenergic receptors; rat cerebral cortex homogenate) of the same compound?
Its Ki is 212 ± 26 nM.

What does the source list for `c1ccc2c(c1)CC1c3ccccc3CCN1C2` (single isomer, unassigned) [Berbine (+), 5,6,13,13a-tetrahydro-8H-dibenzo[a,g]quinolizine]?
Ki (α2 adrenergic receptors): 569 ± 137 nM; affinity for the α1 receptor with respect to the α2 receptor (α1 adrenergic receptors): comparable affinities for the α1 and α2 receptors; Ki (α1 adrenergic receptors; rat cerebral cortex homogenate): 4730 ± 538 nM

For `COC(=O)[C@@H]1[C@H]2C[C@H]3c4[nH]c5ccccc5c4CCN3C[C@@H]2CC[C@@H]1O` [Yohimbin], which Ki (α1 adrenergic receptors; rat cerebral cortex homogenate) is on record?
Its Ki is 322 ± 26 nM.

Which hypotensive activity (hypertensive patients) does the source give for `c1ccc2c(c1)CC1c3ccccc3CCN1C2` (stereo not shown) [Berbine, 5,6,13,13a-tetrahydro-8H-dibenzo[a,g]quinolizine] here?
The hypotensive activity was “hypotensive activity”.

And the “effect on hypertensive effects of adrenalin” value [3]?
Its value is “reverses the hypertensive effects of adrenalin”.

Which “effect on blood pressure” value (normotensive rat) does the source give for `COc1cc2c(cc1OC)CN1CCc3cc(O)ccc3C1C2` (single isomer, unassigned; (+)) [(+) STB 6, 10,11-dimethoxy-3-hydroxy-5,6,13,13a-tetrahydro-8H-dibenzo-[a,g]-quinolizine] here?
Its value is “do not induce a significant decrease in blood pressure”.

And the “effect on vasoconstriction / pressure response caused by electrical stimulation of the sympathetic nerves” value [4]?
The value was “does not have a significant activity; also recorded: devoid of this activity at the same doses”.

And the Ki (α2 adrenergic receptors)?
Its Ki is 901 ± 299 nM.

And the Ki (α1 adrenergic receptors; rat cerebral cortex homogenate)?
The Ki was 2930 ± 363 nM.

And the “type of antagonism against phenylephrine” value [5]?
The value was “non-competitive antagonism against phenylephrine; also recorded: non-competitive antagonist of phenylephrine”.

Which “maximum binding, α1 receptors” value (α1 adrenergic receptors; radioligand, rat cerebral cortex homogenate) does the source give for `COc1cc2nc(N3CCN(C(=O)c4ccco4)CC3)nc(N)c2cc1OC` [3H-prazosin, ^3 H-prazosin] here?
The value was 200±21 fmoles.mg protein^-1.

What does the source list for `COc1cc2c(cc1OC)CN1CCc3cc(OC(=O)Cc4ccccc4)ccc3C1C2` (single isomer, unassigned; (-)) [(-) STB 52, 10,11-dimethoxy-3-phenacetyloxy-5,6,13,13a-tetrahydro-8H-dibenzo-[a,g]-quinolizine]?
r (correlation coefficient of the straight line) [5]: 0.99; n (slope of Schild's straight line) [5]: 1.00; Kb [5]: 100 nM; type of antagonism against phenylephrine [5]: as competitive an antagonist of phenylephrine as (-) STB 6; affinity for the adrenergic receptor [5]: strong affinity for the adrenergic receptor; LD50 ([6]; oral (esophageal forced feeding), 7% dimethylformamide in water): > 800 mg/kg; mortality ([6]; oral, 800 mg.kg^-1 (limit of solubility)): 30%

For `Oc1ccc2c(c1)CCN1Cc3ccccc3CC21` (single isomer, unassigned; (+)) [(+) STB 4, 3-hydroxy-5,6,13,13a-tetrahydro-8H-dibenzo-[a,g]-quinolizine], which “effect on blood pressure” value (normotensive rat) is on record?
The value was “do not induce a significant decrease in blood pressure”.

What about the Ki (α2 adrenergic receptors) of the same compound?
The Ki was 321 ± 72 nM.

What about the Ki (α1 adrenergic receptors; rat cerebral cortex homogenate) of the same compound?
Its Ki is 1220 ± 175 nM.

Which results are given for `COc1cc2c(cc1OC)CN1CCc3cc(O)ccc3C1C2` (single isomer, unassigned; (-)) [(-) STB 6, 10,11-dimethoxy-3-hydroxy-5,6,13,13a-tetrahydro-8H-dibenzo-[a,g]-quinolizine]?
effect on blood pressure (normotensive rat): significant drop in blood pressure; dose at which active on blood pressure (normotensive rat; i.v.): 1 mg/kg; hypotensive activity, rank among the derivatives studied (normotensive rat; i.v.): the most hypotensive of the derivatives studied; effect on vasoconstriction / pressure response caused by electrical stimulation of the sympathetic nerves [4]: decreases the vasoconstriction of the mesenteric territory caused by the electrical stimulation of the sympathetic nerves; also recorded: reduces the pressure response to sympathetic excitation; Ki (α2 adrenergic receptors): 1020 ± 335 nM; affinity for the α1 receptor with respect to the α2 receptor (α1 adrenergic receptors): strong affinity for the α1 receptor, with respect to that for the α2 receptor; Ki (α1 adrenergic receptors; rat cerebral cortex homogenate): 419 ± 132 nM; r (correlation coefficient of the straight line) [5]: 0.99; n (slope of Schild's straight line) [5]: 0.93; Kb [5]: 39.8 nM; type of antagonism against phenylephrine [5]: competitive; affinity for the adrenergic receptor [5]: strong affinity for the adrenergic receptor; effect on pressure response due to noradrenalin injection [7]: without modifying the pressure response due to noradrenalin injection

Which “maximum binding, α2 receptors” value (α2 adrenergic receptors; radioligand) does the source give for “^3 H-yohimbin [3H-yohimbin, reference compound]” here?
Its value is 172.5±49.9 fmoles.mg protein^-1.

What about the Kd (α2 adrenergic receptors; read-out: KD of ligand, α2 receptors) of the same compound?
The Kd was 10.2 nM.
